Data reported in US7101878B1 (Agouron Pharmaceuticals, Inc., priority 1998, dated 2006).

target: T1, mouse GnRH receptor (Mus musculus, UniProt Q01776); test: Radioligand binding, 125I-GnRH-A, 293 cells expressing mouse GnRH receptors; details: 10 uM; read-out: % Inhib. @ 10 uM mGnRH
T1 construct: expressed in transfected cells; host or cells: 293 cells
T1 sequence (Q01776 1-327): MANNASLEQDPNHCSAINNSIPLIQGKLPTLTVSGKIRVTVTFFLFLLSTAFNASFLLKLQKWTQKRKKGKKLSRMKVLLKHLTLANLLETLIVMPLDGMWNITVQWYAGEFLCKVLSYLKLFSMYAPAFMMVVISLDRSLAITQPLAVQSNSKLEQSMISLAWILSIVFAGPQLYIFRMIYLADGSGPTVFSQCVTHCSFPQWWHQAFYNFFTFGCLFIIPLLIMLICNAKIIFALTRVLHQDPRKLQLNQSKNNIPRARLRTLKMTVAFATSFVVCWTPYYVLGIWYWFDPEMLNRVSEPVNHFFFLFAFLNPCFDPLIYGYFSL
How it was run: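 Bound label captured on 0.1% polyethyleneimine-treated GF/C filters, washed three times with PBS, counted. IC50 derived; identical set-up for every species.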

Row | Compound | inhibition at 10 µM
1 | COc1cc2c(cc1OC)C(c1cccc(Br)c1)N(C(=O)c1ccc(Cc3cc4c(cc3C)C(C)(C)CCC4(C)C)o1)CC2 (centres unmarked) | -23%
2 | Cc1cc2c(cc1Cc1ccc(C(=O)N3CCC(N4CCCCC4)CC3)o1)C(C)(C)CCC2(C)C | 92%
3 | Cc1cc2c(cc1Cc1ccc(C(=O)N3C[C@H]4CCCC[C@H]4CC3C(=O)NC(C)(C)C)o1)C(C)(C)CCC2(C)C (some centres unmarked) [drawing 1502] | 52%
4 | CCN(Cc1ccccc1)C(=O)c1ccc(Cc2cc3c(cc2C)C(C)(C)CCC3(C)C)o1 | 86%
5 | COc1ccccc1N1CCN(C(=O)c2ccc(Cc3cc4c(cc3C)C(C)(C)CCC4(C)C)o2)CC1 [drawing 1421] | 73%
6 | Cc1cc2c(cc1Cc1ccc(C(=O)N(CC#N)CC#N)o1)C(C)(C)CCC2(C)C | 64%
7 | Cc1cc2c(cc1Cc1ccc(C(=O)N(CCCCO)Cc3ccccc3)o1)C(C)(C)CCC2(C)C | 99%
8 | Cc1cc2c(cc1Cc1ccc(C(=O)N3CCCC3C)o1)C(C)(C)CCC2(C)C (centres unmarked) [drawing 1545] | 102%
9 | Cc1cc2c(cc1Cc1ccc(C(=O)N(CCC#N)Cc3ccco3)o1)C(C)(C)CCC2(C)C [drawing 1309] | 77%
10 | COCCCNC(=O)c1ccc(Cc2cc3c(cc2C)C(C)(C)CCC3(C)C)o1 [drawing 1268] | 101%
11 | Cc1cc2c(cc1Cc1ccc(C(=O)N3CCC[C@H]3CO)o1)C(C)(C)CCC2(C)C | 93%
12 | Cc1cc2c(cc1Cc1ccc(C(=O)N(Cc3cccnc3)Cc3cccnc3)o1)C(C)(C)CCC2(C)C [drawing 1538] | 101%
13 | Cc1cc2c(cc1Cc1ccc(C(=O)N(Cc3ccc(O)cc3)C3CCN(Cc4ccccc4)C3)o1)C(C)(C)CCC2(C)C (centres unmarked) | 82%
14 | CCN1CC(N(Cc2ccccc2C#N)C(=O)c2ccc(Cc3cc4c(cc3C)C(C)(C)CCC4(C)C)o2)CN1CC [drawing 1565] | 101%
15 | Cc1cc2c(cc1Cc1ccc(C(=O)N(Cc3ccc(C(C)C)cc3)Cc3cccnc3)o1)C(C)(C)CCC2(C)C [drawing 1474] | 76%
16 | Cc1cccc(N2CCN(C(=O)c3ccc(Cc4cc5c(cc4C)C(C)(C)CCC5(C)C)o3)CC2C)c1 (centres unmarked) [drawing 1520] | 73%
17 | Cc1cc2c(cc1Cc1ccc(C(=O)N(Cc3cccnc3)Cc3cccc4ccccc34)o1)C(C)(C)CCC2(C)C | 79%
18 | Cc1cc2c(cc1Cc1ccc(C(=O)N(Cc3cccn3C)C3CCN(Cc4ccccc4)C3)o1)C(C)(C)CCC2(C)C (centres unmarked) [drawing 1562] | 98%
19 | Cc1cc2c(cc1Cc1ccc(C(=O)NC(C)(C)C)o1)C(C)(C)CCC2(C)C [drawing 1450] | 72%
20 | Cc1cc2c(cc1Cc1ccc(C(=O)N3CCCCC3CO)o1)C(C)(C)CCC2(C)C (centres unmarked) | 84%
21 | Cc1cc2c(cc1Cc1ccc(C(=O)NC[C@@H]3CCCC[C@H]3O)o1)C(C)(C)CCC2(C)C [drawing 1466] | 97%
22 | CCN(CC)CCCC(C)NC(=O)c1ccc(Cc2cc3c(cc2C)C(C)(C)CCC3(C)C)o1 (centres unmarked) | 99%

Row | Compound | inhibition at 10 µM
23 | CCN(CC)CCCN(CCCN(CC)CC)C(=O)c1ccc(Cc2cc3c(cc2C)C(C)(C)CCC3(C)C)o1 | 69%
24 | CCCN(CC1CC1)C(=O)c1ccc(Cc2cc3c(cc2C)C(C)(C)CCC3(C)C)o1 | 96%
25 | Cc1cc2c(cc1Cc1ccc(C(=O)N3Cc4ccccc4CC3CO)o1)C(C)(C)CCC2(C)C (centres unmarked) | 61%
26 | CCOC(=O)CN1CCN(C(=O)c2ccc(Cc3cc4c(cc3C)C(C)(C)CCC4(C)C)o2)CC1 | 66%
27 | Cc1cc2c(cc1Cc1ccc(C(=O)N3CCCC3CNc3ccccc3)o1)C(C)(C)CCC2(C)C (centres unmarked) | 53%
28 | CCCN(C(=O)c1ccc(Cc2cc3c(cc2C)C(C)(C)CCC3(C)C)o1)C(C)CC (centres unmarked) | 94%
29 | Cc1cc2c(cc1Cc1ccc(C(=O)N3CCc4ccccc4C3)o1)C(C)(C)CCC2(C)C [drawing 1422] | 70%
30 | Cc1cc2c(cc1Cc1ccc(C(=O)N3CCN(CC(=O)N4CCCC4)CC3)o1)C(C)(C)CCC2(C)C [drawing 1432] | 79%
31 | Cc1cc2c(cc1Cc1ccc(C(=O)N3CCN(C(=O)OC(C)(C)C)CC3)o1)C(C)(C)CCC2(C)C | 90%
32 | Cc1cc2c(cc1Cc1ccc(C(=O)N(C)C3CCN(C)CC3)o1)C(C)(C)CCC2(C)C [drawing 1420] | 89%
33 | CCN(CC)CCCCNC(=O)c1ccc(Cc2cc3c(cc2C)C(C)(C)CCC3(C)C)o1 | 101%
34 | Cc1cc2c(cc1Cc1ccc(C(=O)N3CCC(C(=O)c4ccccc4)CC3)o1)C(C)(C)CCC2(C)C [drawing 1495] | 59%
35 | Cc1cc2c(cc1Cc1ccc(C(=O)NCCn3c([N+](=O)[O-])cnc3C)o1)C(C)(C)CCC2(C)C [drawing 1486] | 42%
36 | Cc1cc2c(cc1Cc1ccc(C(=O)N3CCCC(C(N)=O)C3)o1)C(C)(C)CCC2(C)C (centres unmarked) | 69%
37 | Cc1cc2c(cc1Cc1ccc(C(=O)NC(C)C3CCCCC3)o1)C(C)(C)CCC2(C)C (centres unmarked) [drawing 1463] | 72%
38 | Cc1cc2c(cc1Cc1ccc(C(=O)N3CCN(C(c4ccc(F)cc4)c4ccc(F)cc4)CC3)o1)C(C)(C)CCC2(C)C | 16%
39 | Cc1cc2c(cc1Cc1ccc(C(=O)N3CCN(CCO)CC3)o1)C(C)(C)CCC2(C)C [drawing 1429] | 69%
40 | Cc1cc2c(cc1Cc1ccc(C(=O)NC3CCc4ccccc43)o1)C(C)(C)CCC2(C)C (centres unmarked) [drawing 1375] | 57%
41 | Cc1cc2c(cc1Cc1ccc(C(=O)NCCCN(C)C)o1)C(C)(C)CCC2(C)C | 99%
42 | Cc1cc2c(cc1Cc1ccc(C(=O)NCc3cccc(NC(=O)NC(Cc4ccccc4)c4ccccc4)c3)o1)C(C)(C)CCC2(C)C (centres unmarked) [drawing 1570] | 42%
43 | Cc1cc2c(cc1Cc1ccc(C(=O)N3CCN(Cc4ccc5c(c4)OCO5)CC3)o1)C(C)(C)CCC2(C)C | 66%

same assay, conditions: 1 h, substrate remaining; 10 uM compound; closer to zero = closer to 100% inhibition; read-out: S%R 10 uM mGnRHR

Row | Compound | remaining activity at 10 µM
44 | Cc1cc2c(cc1Cc1ccc(C(=O)NCCc3ccc4c(c3)OCO4)o1)C(C)(C)CCC2(C)C [Compound 467] | -1%
45 | Cc1cc2c(cc1Cc1ccc(C(=O)NCCCc3ccccc3)o1)C(C)(C)CCC2(C)C [Compound 469] | -9%
46 | COC(CNC(=O)c1ccc(Cc2cc3c(cc2C)C(C)(C)CCC3(C)C)o1)OC [Compound 607] | -2%
47 | Cc1cc2c(cc1Cc1ccc(C(=O)N(Cc3cccnc3)Cc3ccccc3F)o1)C(C)(C)CCC2(C)C [Compound 703] | 5%
48 | CCCOCCNC(=O)c1ccc(Cc2cc3c(cc2C)C(C)(C)CCC3(C)C)o1 [Compound 669] | -3%
49 | Cc1cc2c(cc1Cc1ccc(C(=O)N3CCCC3C(=O)OCc3ccccc3)o1)C(C)(C)CCC2(C)C (centres unmarked) [Compound 651] | 15%
50 | Cc1cc2c(cc1Cc1ccc(C(=O)N3CCCC3C(=O)NC(c3ccccc3)c3ccccc3)o1)C(C)(C)CCC2(C)C (centres unmarked) [Compound 621] | 43%
51 | Cc1cc2c(cc1Cc1ccc(C(=O)NCC3(O)CCCCC3)o1)C(C)(C)CCC2(C)C [Compound 571] | 36%
52 | COc1cc2c(cc1OC)C(CC#N)N(C(=O)c1ccc(Cc3cc4c(cc3C)C(C)(C)CCC4(C)C)o1)CC2 (centres unmarked) [Compound 614] | 48%
53 | COC(OC)C(C)NC(=O)c1ccc(Cc2cc3c(cc2C)C(C)(C)CCC3(C)C)o1 (centres unmarked) [Compound 662] | 3%
54 | Cc1cc2c(cc1Cc1ccc(C(=O)NCCn3c([N+](=O)[O-])cnc3C)o1)C(C)(C)CCC2(C)C [Compound 552] | 58%
55 | Cc1cc2c(cc1Cc1ccc(C(=O)NCCCN(C)c3ccccc3)o1)C(C)(C)CCC2(C)C [Compound 462] | 0%
56 | CC(=O)N(C)C1CCN(C(=O)c2ccc(Cc3cc4c(cc3C)C(C)(C)CCC4(C)C)o2)C1 (centres unmarked) [Compound 544] | 27%
57 | CCN(CCO)C(=O)c1ccc(Cc2cc3c(cc2C)C(C)(C)CCC3(C)C)o1 [Compound 539] | 19%
58 | COc1cc(OC)cc(N2CCN(C(=O)c3ccc(Cc4cc5c(cc4C)C(C)(C)CCC5(C)C)o3)CC2)c1 [Compound 647] | 35%
59 | Cc1cc2c(cc1Cc1ccc(C(=O)NCc3ccc(S(N)(=O)=O)cc3)o1)C(C)(C)CCC2(C)C [Compound 521] | 51%
60 | Cc1cc2c(cc1Cc1ccc(C(=O)NCCc3ccccc3Oc3ccccc3)o1)C(C)(C)CCC2(C)C [Compound 512] | 51%
61 | Cc1cc2c(cc1Cc1ccc(C(=O)NC(CO)CC(C)C)o1)C(C)(C)CCC2(C)C (centres unmarked) [Compound 706] | 3%
62 | Cc1cc2c(cc1Cc1ccc(C(=O)NCc3ccccc3C(F)(F)F)o1)C(C)(C)CCC2(C)C [Compound 516] | 21%
63 | Cc1cc2c(cc1Cc1ccc(C(=O)NCCN3CCCC3)o1)C(C)(C)CCC2(C)C [Compound 515] | 11%
64 | COc1cccc(N2CCN(C(=O)c3ccc(Cc4cc5c(cc4C)C(C)(C)CCC5(C)C)o3)CC2)c1 [Compound 553] | 34%
65 | COc1cccc(N2CCN(C(=O)c3ccc(Cc4cc5c(cc4C)C(C)(C)CCC5(C)C)o3)CC2C)c1 (centres unmarked) [Compound 663] | 25%
66 | CCOC(=O)CCNC(=O)c1ccc(Cc2cc3c(cc2C)C(C)(C)CCC3(C)C)o1 [Compound 684] | 2%

same assay, conditions: read-out: % Inhib. @ 10 uM mGnRH

Row | Compound | inhibition at 10 µM
67 | Cc1cc2c(cc1Cc1ccc(C(=O)N3CCC4(CC3)OCCCO4)o1)C(C)(C)CCC2(C)C | 99%

same assay, conditions: substrate remaining; 10 uM compound; closer to zero = closer to 100% inhibition

Row | Compound | S%R 10 uM mGnRHR
68 | Cc1cc2c(cc1Cc1ccc(C(=O)NCCc3c[nH]cn3)o1)C(C)(C)CCC2(C)C [Compound 527] | 10%
